# Entries after “also recorded” stand apart in the source; their conditions may differ.
# Columns and labels:
# HT29 cells = assay: Proliferation assay (Crystal Violet), HT29; type: cell-based, human; conditions: cilengitide added at day 1, measured day 1–5; concentration optimised per cell line, not given; three biological replicates
# Procedure: (§1) Fig. 6. Integrin β5 promotes colorectal cancer cell proliferation. […] Cells were fixed after 3 days of treatment and β5 (green in merge) and vinculin (magenta) were visualized using confocal microscopy. Cell nuclei are shown in blue. Scale bars: 20 μm. (B) Cells were seeded on day 0 and proliferation was measured from day 1–5 in cells with or without cilengitide (added at day 1). (C,E) FACS plots showing the expression of β5 in SW620 (C) and HT29 (E) wild-type (WT) and β5 knockout cells. Cells stained with a secondary PE-conjugated antibody only were used as negative control (n=2). (D,F) Proliferation of SW620 and HT29 wild-type and β5 knockout cells. (G) Representative IF images showing integrin β5 (green in merge), vinculin (red), actin (blue), nuclei (cyan) in SW620 wild-type, β5-deficient, and cilengitide-treated cells that were cultured for 5 days on coverslips prior to fixation. Scale bars: 100 μm. (H,I) Proliferation of SW620 (H) and HT29 (I) wild-type and β5 knockout cells on 3.2 μg ml^−1 collagen. […]
# (§2) Cells were seeded at a density of 5×10^4 cells per well in a 96-well plate and treated with cilengitide or DMSO, as indicated in the figure legend. […] Cells were air-dried overnight and lysed in 2% SDS, after which the OD value of Crystal Violet at 490 nm was determined using an Epoch microplate reader equipped with Gen5 software. […]
# [1] = test system: integrin β5 clustering in SW620, HT29 and SW480 cells; assay: Inhibition of β5 clustering (confocal microscopy); type: cell-based, human; conditions: cells fixed after 3 days of cilengitide treatment
# Procedure: (§3) Fig. 6. Integrin β5 promotes colorectal cancer cell proliferation. […] Cells were fixed after 3 days of treatment and β5 (green in merge) and vinculin (magenta) were visualized using confocal microscopy. Cell nuclei are shown in blue. Scale bars: 20 μm. (B) Cells were seeded on day 0 and proliferation was measured from day 1–5 in cells with or without cilengitide (added at day 1). (C,E) FACS plots showing the expression of β5 in SW620 (C) and HT29 (E) wild-type (WT) and β5 knockout cells. Cells stained with a secondary PE-conjugated antibody only were used as negative control (n=2). (D,F) Proliferation of SW620 and HT29 wild-type and β5 knockout cells. (G) Representative IF images showing integrin β5 (green in merge), vinculin (red), actin (blue), nuclei (cyan) in SW620 wild-type, β5-deficient, and cilengitide-treated cells that were cultured for 5 days on coverslips prior to fixation. Scale bars: 100 μm. (H,I) Proliferation of SW620 (H) and HT29 (I) wild-type and β5 knockout cells on 3.2 μg ml^−1 collagen. Results shown represent mean±s.d. of three biological replicates, of which each experiment was performed in triplicate. *P<0.05 (two-sided unpaired Student's t-test).
# (§4) PA-JEB/β4 keratinocytes were seeded on glass coverslips and cultured in complete KGM medium for 24 h, and then treated with DMEM plus 10% FCS for 24 h. […]
# SW480 cells = assay: Proliferation assay (Crystal Violet), SW480; type: cell-based, human; conditions: cilengitide added at day 1, measured day 1–5; concentration optimised per cell line, not given; three biological replicates
# Procedure: as §1, §2
# SW620 cells [2] = assay: Cell growth morphology (immunofluorescence), SW620; type: cell-based, human; conditions: cilengitide-treated SW620 cells cultured for 5 days on coverslips; control cells mainly formed a 2D monolayer
# Procedure: as §3, §4
# integrin αVβ3/αVβ5 = conditions: stated as known, no reference given; cited from earlier work
# Description: The integrin β5 plays a role in breast cancer and osteosarcoma cell proliferation ([Bianchi-Smiraglia et al., 2013]; [Lock et al., 2018]). Here, we analyzed the role of integrin β5 in cell proliferation of SW620, HT29 and SW480 colorectal cancer cells, in which β5 localizes predominantly in FCLs, FAs or is distributed equally in both adhesions, respectively. Because none of these cell lines express the integrin β3 subunit (Fig. S5A), we used the integrin αVβ3/αVβ5 antagonist cilengitide as a tool to inhibit αVβ5 function. The optimal concentration for inhibition was determined for each cell li ...
# SW620 cells [3] = assay: Proliferation assay (Crystal Violet), SW620; type: cell-based, human; conditions: cilengitide added at day 1, measured day 1–5; concentration optimised per cell line, not given; three biological replicates
# Procedure: as §1, §2
# ARH = assay: Peptide pulldown, ARH; type: binding; conditions: desthiobiotin tail peptide on streptavidin beads, RAC-11P lysate, 4°C, 4 h; western blot; two repeats
# Procedure: (§5) Peptide pulldowns were carried out as previously described ([Böttcher et al., 2012]) with the mouse β1 wild-type cytoplasmic tail peptide ([…]-OH) and a scrambled peptide ([…]-OH), mouse β3 wild-type tail peptide ([…]-OH), mouse β5 wild-type tail peptide ([…]-OH), β5 Δ8aa tail peptide ([…]-OH) and scrambled peptide […].
# (§6) The tail peptides were synthesized de novo with a desthiobiotin on the N-terminus, coupled to Dynabeads MyOne streptavidin C1 (10 mgml^−1, Invitrogen) and incubated with RAC-11P cell lysates (prepared with M-PER reagent, Thermo Fisher Scientific) at 4°C with rotation for 4 h. After three washes with wash buffer (M-PER diluted 1:1 with PBS), bound proteins were eluted in 2× Laemmli buffer at 95°C for 5 min and separated on an 8% SDS-PAGE gel.
# Numb-PTB (20-175) = molecular target: T1, Numb-PTB (20-175) (Homo sapiens, UniProt P49757); assay: Microscale thermophoresis (MST), Numb; type: binding; conditions: concentration range tested up to 50 µM for β1
# T1 construct: A pETNKI-6xhis-3C-Numb-PTB (20-175) construct was expressed in Rosetta2 (DE3) cells; 6xHis-3C (N, cleaved yes); made in house; host or cells: E. coli Rosetta2 (DE3)
# T1 sequence (P49757 20-175): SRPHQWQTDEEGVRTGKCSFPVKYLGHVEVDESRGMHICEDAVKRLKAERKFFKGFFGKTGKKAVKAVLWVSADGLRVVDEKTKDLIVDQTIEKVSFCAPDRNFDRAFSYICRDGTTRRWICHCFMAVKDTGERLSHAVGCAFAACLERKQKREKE
# Description: (§7) Fig. 2. Adaptor protein binding to integrin β subunits. (A) Colocalization of integrin chimeras fused to the promiscuous biotin ligase BirA* (green in merge) with vinculin (red; left panels) or clathrin (red; right panels) in PA-JEB/β4 keratinocytes. Actin is shown in blue. Nuclei are stained with DAPI (cyan). Scale bars: 20 μm. (B) Representative western blots of BioID assays performed using the integrin chimeras shown in A. Quantifications of ARH, Numb and talin signal intensities normalized to streptavidin-HRP levels are shown (n=3; bars show mean±s.d.). (C) Representative western blots of pulldown assays (from two repeats) using synthetic integrin β cytoplasmic domains in RAC-11P cell lysates.
# A pETNKI-6xhis-3C-Numb-PTB (20-175) construct was expressed in Rosetta2 (DE3) cells for 18 h at 20°C. Cells were lysed (25 mM Tris-HCl pH 8.0, 10 mM imidazole, 200 mM NaCl, 1 mM TCEP, 5 μg/ml DNase) and sonicated, after which insoluble proteins and cell debris were removed by centrifugation (21,000 g for 30 min at 4°C). Soluble lysate was applied to a nickel Sepharose column and beads were washed with wash buffer (lysis buffer without DNase) before protein was eluted in wash buffer supplemented with 250 mM imidazole. The 6xhis tag was cleaved off by his-3C protease during dialysis against 25 mM Tris-HCl pH 8.0, 100 mM NaCl, 1 mM TCEP, 16 h at 4°C. Elution fractions were pooled, diluted with six volumes of 20 mM HEPES pH 7.5, 1 mM TCEP and applied to a 1 ml Resource S cation-exchange column (Cytiva). Protein was eluted in a NaCl gradient (50–700 mM) in 25 mM HEPES (pH 7.5). 6xhis-Numb-PTB was concentrated and further purified by size-exclusion chromatography (SEC70 column, Bio-Rad) in 25 mM Tris-HCl pH 8.0, 200 mM NaCl and 1 mM TCEP.
# All MST measurements were performed on a Monolith NT.115 red-blue (Nanotemper, Munich, Germany) using premium-coated capillaries to reduce non-specific interaction of the proteins with the glass surface. […] Data was analyzed using the MO Affinity Analysis Software (Nanotemper).
# full-length human ARH = molecular target: T2, full-length human ARH (Homo sapiens, UniProt Q5SW96); assay: Microscale thermophoresis (MST), ARH; type: binding; conditions: concentration range tested up to 50 µM for β1
# T2 construct: The full-length human ARH gene was cloned into the pETNKI-6xhis-3C-LIC vector; made in house; host or cells: E. coli BL21(DE3)
# T2 sequence (Q5SW96 1-308): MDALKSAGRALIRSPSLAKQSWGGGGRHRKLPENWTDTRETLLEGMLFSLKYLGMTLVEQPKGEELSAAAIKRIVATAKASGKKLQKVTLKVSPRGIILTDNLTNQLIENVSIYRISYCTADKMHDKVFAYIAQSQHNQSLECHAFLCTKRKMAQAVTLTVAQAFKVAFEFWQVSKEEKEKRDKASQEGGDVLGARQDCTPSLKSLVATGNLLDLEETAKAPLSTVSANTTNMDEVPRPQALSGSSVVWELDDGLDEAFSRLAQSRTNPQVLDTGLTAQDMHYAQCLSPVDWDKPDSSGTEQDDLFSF
# Description: as §7
# The full-length human ARH gene was cloned into the pETNKI-6xhis-3C-LIC vector ([Luna-Vargas et al., 2011]) and 6xhis–ARH protein was produced in Bl21(DE3) E. coli cells. Cells were grown at 37°C until an optical density at 600 nm (OD600) of 0.6 was reached. Temperature was reduced to 30°C and protein was expressed upon induction with 0.4 mM IPTG for 3.5 h. Cells were harvested and resuspended in lysis buffer (20 mM HEPES, pH 7.5, 200 mM NaCl, 1 mM TCEP and 5 μg ml^−1 DNase). After sonication, cell debris and insoluble proteins were removed by centrifugation (21,000 g for 30 min). 6xhis–ARH was purified from the soluble fraction using nickel Sepharose beads and eluted in 20 mM HEPES, pH 7.5, 200 mM NaCl, 1 mM TCEP and 250 mM imidazole. Fractions containing 6xhi–ARH were further purified on a SEC650 size exclusion column (Bio-Rad), equilibrated with 20 mM HEPES, pH 7.5, 100 mM NaCl and 1 mM TCEP.
# (§8) All MST measurements were performed on a Monolith NT.115 red-blue (Nanotemper, Munich, Germany) using premium-coated capillaries to reduce non-specific interaction of the proteins with the glass surface. Both interaction partners (ligand and receptor) were transferred into MST buffer (20 mM Tris-HCl pH 7.5, 200 mM sodium chloride, 1 mM TCEP and 0.05% Tween-20) to avoid artifacts derived from buffer mismatches. […] Data was analyzed using the MO Affinity Analysis Software (Nanotemper).
# KANK-2 = assay: Peptide pulldown, KANK-2; type: binding; conditions: desthiobiotin tail peptide on streptavidin beads, RAC-11P lysate, 4°C, 4 h; western blot; two repeats
# Procedure: as §5, §6
# talin = assay: Peptide pulldown, talin; type: binding; conditions: desthiobiotin tail peptide on streptavidin beads, RAC-11P lysate, 4°C, 4 h; western blot; two repeats
# Procedure: as §5, §6
# kindlin-2 = assay: Microscale thermophoresis (MST), kindlin-2; type: binding; conditions: titration of kindlin-2 to 200 nM ATTO488-labeled cytoplasmic tail peptide; n≥3
# Procedure: Kindlin-2 was expressed and purified as described in [Böttcher et al. (2017)]. Briefly, kindlin constructs were cloned into pCoofy17 ([Scholz et al., 2013]), which adds an N-terminal His10-Sumo tag and expressed soluble in E. coli Rosetta at 18°C overnight. After purification by immobilized-metal affinity chromatography (IMAC) in high-salt TBS buffer (20 mM Tris, pH 7.5, 500 mM NaCl, 1 mM TCEP), the Sumo tag was removed by SenP2 (obtained from MPIB Biochemistry Core Facility) digest overnight and the protein was further purified by SEC using TBS (20 mM Tris-HCl pH 7.5, 200 mM NaCl, 1 mM TCEP) containing 5% glycerol as running and storage buffer. After the final chromatography, the purity, integrity and identity of recombinant kindlin-2 and talin-1 head domain were controlled by UV spectrum, SDS-PAGE, high-resolution total mass and dynamic light scattering (DLS).
# as §8, with “(Nanotemper). […]” for “(Nanotemper).”
# Numb = assay: Peptide pulldown, Numb; type: binding; conditions: desthiobiotin tail peptide on streptavidin beads, RAC-11P lysate, 4°C, 4 h; western blot; two repeats
# Procedure: as §5, §6
# kindlin-1/2 = assay: Peptide pulldown, kindlin-1/2; type: binding; conditions: desthiobiotin tail peptide on streptavidin beads, RAC-11P lysate, 4°C, 4 h; western blot; two repeats
# Procedure: as §5, §6
Substance,"proliferation, HT29 (HT29 cells)",inhibition of β5 clustering [1],"proliferation, SW480 (SW480 cells)",growth phenotype (SW620 cells [2]),integrin αVβ3/αVβ5 antagonism (integrin αVβ3/αVβ5),"proliferation, SW620 (SW620 cells [3])",interaction with ARH in pulldown (ARH),binding to Numb by MST (β1) (Numb-PTB (20-175)),binding to ARH by MST (β1) (full-length human ARH),interaction with KANK-2 in pulldown (KANK-2),interaction with talin in pulldown (talin),binding to kindlin by MST (kindlin-2),interaction with Numb in pulldown (Numb),interaction with kindlin-1/2 in pulldown (kindlin-1/2)
"cilengitide (RGDFV; chains of the INN, looked up) [integrin αVβ3/αVβ5 antagonist]",significant decrease in proliferation,Inhibition of β5 clustering,significant decrease in proliferation,grew on top of each other,antagonist,significant decrease in proliferation,–,–,–,–,–,–,–,–
"HDRREFAKFEKEKMNAKWDTGENPIYKSAVTTVVNPKYEGK-OH [β1, synthetic integrin β1 cytoplasmic tail peptide]",–,–,–,–,–,–,"not β1 and β3, bind to Numb and ARH",no binding; also recorded: unable to detect binding,no binding; also recorded: unable to detect binding,interaction,interaction,much higher affinity than β3 and β5,"not β1 and β3, bind to Numb and ARH",interaction

# — article PMC9234671, “Molecular determinants of αVβ5 localization in flat clathrin lattices – role of αVβ5 in cell adhesion and proliferation” (Journal of Cell Science, 2022)
